Laboratory results: US7419984B2, “Pyrimidines and uses thereof” (Cell Therapeutics, Inc., priority 2002, dated 2008)

Target: T1, human LPAAT-β (Homo sapiens, UniProt O15120)
T1 construct: the full-length human LPAAT-β cDNA was amplified by PCR; poly-histidine tag (N); made in house; host or cells: Sf9 insect cells (baculovirus, pFastBac HTc); the membrane fraction was used as the enzyme
T1 sequence (O15120 24-278): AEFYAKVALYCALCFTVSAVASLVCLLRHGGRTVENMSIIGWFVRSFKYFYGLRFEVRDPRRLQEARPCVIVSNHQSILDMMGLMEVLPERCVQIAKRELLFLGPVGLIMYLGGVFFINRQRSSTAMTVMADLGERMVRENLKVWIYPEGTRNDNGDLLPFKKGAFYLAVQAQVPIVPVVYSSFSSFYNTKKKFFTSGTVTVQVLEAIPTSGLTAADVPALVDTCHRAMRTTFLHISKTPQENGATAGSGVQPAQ
Experiment: LPAAT-β cell-free assay
Format: biochemical
Conditions: Sf9 cell membrane overexpressing recombinant LPAAT-β
How it was run: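 Membranes from Sf9 cells expressing His/myc-tagged full-length human LPAAT-β were used in HEPES-saline pH 7.5 with 1 mg/ml BSA. Compound was added from a 200 μM DMSO stock, and reaction with 18:1-CoA and sn-1-18:1 lysoPA (1 mM stocks) ran 25 min at RT. Released CoA was detected with DTNB at 405 nm; a radiometric variant used 200 μM [14C]18:1-CoA and 200 μM lysoPA.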

Structure (SMILES)	IC50 [µM]
Nc1nc(Nc2ccc(Cl)cc2)cc(-c2cc(Cl)cc(Cl)c2Cl)n1 [Example 98, N*4*-(4-Chloro-phenyl)-6-(2,3,5-trichloro-phenyl)-pyrimidine-2,4-diamine]	0.091
CCOc1ccc(Br)cc1-c1cc(Nc2ccc(CO)cc2)nc(N)n1 [Example 62, {4-[2-Amino-6-(5-bromo-2-ethoxy-phenyl)-pyrimidin4-ylamino]-phenyl}-methanol]	0.08
Cc1ccc(F)cc1-c1cc(Nc2ccc(C(F)(F)F)cc2)nc(N)n1 [Example 76, 6-(5-Fluoro-2-methyl-phenyl)-N*4*-(4-trifluoromethyl-phenyl)-pyrimidine-2,4-diamine]	0.71
Cc1ccc(Br)cc1-c1cc(Nc2ccc(N=[N+]=[N-])cc2)nc(N)n1 [Example 81, [6-(5-Bromo-2-methyl-phenyl)-(4-azido-phenyl)-pyrimidine]-2,4-diamine]	0.19
Cc1ccc(Cl)cc1-c1cc(Nc2ccc3cn[nH]c3c2)nc(N)n1 [Example 31, 6-(5-Chloro-2-methyl-phenyl)-N*4*-(1H-indazol-6-yl)-pyrimidine-2,4-diamine]	0.032
Cc1ccc(Cl)cc1-c1cc(Nc2ccc(CCO)cc2)ncn1 [Example 176, 2-{4-[6-(5-Chloro-2-methyl-phenyl)-pyrimidin-4-ylamino]-phenyl}-ethanol]	0.06
N#Cc1ccc(Nc2cc(-c3cc(Cl)ccc3Cl)nc(N)n2)cc1 [Example 24, 4-[2-Amino-6-(2,5-dichloro-phenyl)-pyrimidin-4-ylamino]-benzonitrile]	0.029
Nc1nc(Nc2ccc(Cl)cc2)cc(-c2cc(Cl)ccc2OCC2CCCCC2)n1 [Example 168, 6-(5-Chloro-2-cyclohexylmethoxy-phenyl)-N*4*-(4-chloro-phenyl)-pyrimidine-2,4-diamine]	0.016
COc1ccc(Cl)cc1-c1cc(Nc2ccc(C#N)cc2)nc(N)n1 [Example 45, 4-[2-Amino-6-(5-chloro-2-methoxy-phenyl)-pyrimidin-4-ylamino]-benzonitrile]	0.033
CCOc1ccc(Br)cc1-c1cc(Nc2ccc(Cl)cc2)ncn1 [Example 190, [6-(5-Bromo-2-ethoxy-phenyl)-pyrimidin4-yl]-(4-chloro-phenyl)-amine]	0.03
CCOc1ccc(Br)cc1-c1cc(Nc2ccc(C(O)C(F)(F)F)cc2)nc(N)n1 (centres unmarked) [Example 129, 1-{4-[2-Amino-6-(5-bromo-2-ethoxy-phenyl)-pyrimidin4-ylamino]-phenyl}-2,2,2-trifluoro-ethanol]	0.014
COc1ccc(COc2ccc(Br)cc2-c2cc(Nc3ccc(Cl)cc3)nc(N)n2)cc1 [Example 185, 6-[5-Bromo-2-(4-methoxy-benzyloxy)-phenyl]-N*4*-(4-chloro-phenyl)-pyrimidine-2,4-diamine]	0.004
COc1ccccc1COc1ccc(Br)cc1-c1cc(Nc2ccc(C)cc2)nc(N)n1 [Example 188, 6-[5-Bromo-2-(2-methoxy-benzyloxy)-phenyl]-N*4*-p-tolyl-pyrimidine-2,4-diamine]	0.021
COc1ccc(Cl)cc1-c1cc(N)nc(Nc2ccc(Cl)cc2)n1 [Example 34, 6-(5-Chloro-2-methoxy-phenyl)-N*2*-(4-chloro-phenyl)-pyrimidine-2,4-diamine]	2
CCOc1ccc(Cl)cc1-c1cc(Nc2ccc(COC(=O)CN)cc2)nc(N)n1 [Example 64, Amino acetic acid-4-[2-amino-6-(5-chloro-2-ethoxy-phenyl)-pyrimidin-4-ylamino]-benzyl ester]	1.5
Nc1nc(Nc2ccc3cn[nH]c3c2)cc(-c2cc(Cl)ccc2Cl)n1 [Example 19, 6-(2,5-Dichloro-phenyl)-N*4*-(1H-indazol-6-yl)-pyrimidine-2,4-diamine]	0.027
CC(=NO)c1ccc(Nc2cc(-c3cc(Cl)ccc3C)nc(N)n2)cc1 [Example 104, 1-{4-[2-Amino-6-(5-chloro-2-methyl-phenyl)-pyrimidin-4-ylamino]-phenyl}-ethanone-oxime]	0.16
Cc1ccc(Cl)cc1-c1cc(Nc2ccc(C(CO)CO)cc2)nc(N)n1 [Example 116, 2-{4-[2-Amino-6-(5-chloro-2-methyl-phenyl)-pyrimidin-2-yl-amino]-phenyl}-propane-1,3-diol]	1.1
COC(=O)c1ccc(Nc2cc(-c3cc(Cl)ccc3OC)nc(N)n2)cc1 [Example 9, 4-[2-Amino-6-(5-chloro-2-methoxy-phenyl)-pyrimidin-4-ylamino]-benzoic acid methyl ester]	0.6
Nc1nc(Nc2ccc(C(F)(F)F)cc2)cc(-c2cc(Cl)cc(Cl)c2Cl)n1 [Example 102, 6-(2,3,5-trichloro-phenyl) N*4*-(4-trifluoromethyl-phenyl)-pyrimidine-2,4-diamine]	0.5
Nc1nc(Nc2ccc(Cl)cc2)cc(-c2ccccc2)n1 [Example 106, N*4*-(4-Chloro-phenyl)-6-phenyl-pyrimidine-2,4-diamine]	1.1
CCOc1ccc(Cl)cc1-c1cc(Nc2ccc3cn[nH]c3c2)nc(N)n1 [Example 54, 6-(5-Chloro-2-ethoxy-phenyl)-N*4*-(1H-indazol-6-yl)-pyrimdine-2,4-diamine]	0.024
CCOc1ccc(Br)cc1-c1cc(Nc2ccc(C(=O)OC)cc2)nc(N)n1 [Example 61, 4-[2-Amino-6-(5-bromo-2-ethoxy-phenyl)-pyrimidin-4-ylamino]-benzoic acid methyl ester]	0.35
COc1ccc(Br)cc1-c1cc(Nc2ccc(C#N)cc2)nc(N)n1 [Example 160, 4-[2-Amino-6-(5-bromo-2-methoxy-phenyl)-pyrimidin4-ylamino]-benzonitrile]	0.038
Cc1ccc(Br)cc1-c1cc(Nc2ccc(Br)cc2)nc(N)n1 [Example 85, 6-(5-Bromo-2-methyl-phenyl)-N*4*-(4-bromo-phenyl)-pyrimidine-2,4-diamine]	0.018
Nc1nc(Nc2ccc([N+](=O)[O-])cc2)cc(-c2cc(Cl)ccc2Cl)n1 [Example 25, 6-(2,5-Dichloro-phenyl)-N*4*-(4-nitro-phenyl)-pyrimidine-2,4-diamine]	0.009

More lines, in order of falling IC50, values ahead:

IC50 [µM]	Structure (SMILES)
0.9	Cc1ccc(Cl)cc1-c1cc(Nc2ccc3c(c2)C(=O)NC3=O)nc(N)n1 [Example 79, 5-[2-Amino-6-(5-chloro-2-methyl-phenyl)-pyrimidin4-ylamino]-isoindole-1,3-dione]
0.5	Cc1ccc(Cl)cc1-c1cc(Nc2ccc(C(F)(F)F)nc2)nc(N)n1 [Example 126, 6-(5-chloro-2-methylphenyl)-N*4*-(6-trifluoromethylpyridin-3-yl)pyrimidine-2,4-diamine]
0.45	COc1ccc(Cl)cc1-c1cc(Nc2ccc(O)cc2)nc(N)n1 [Example 6, 4-[2-Amino-6-(5-chloro-2-methoxy-phenyl)-pyrimidin-4-ylamino]-phenol]
0.33	COC(=O)c1ccc(Nc2cc(-c3cc(Cl)ccc3Cl)nc(N)n2)cc1 [Example 21, 4-[2-Amino-6-(2,5-dichloro-phenyl)-pyrimidin-4-yl-amino]-benzoic acid methyl ester]
0.31	CCc1ccc(Cl)cc1-c1cc(Nc2ccc(Br)cc2)nc(N)n1 [Example 163, N*4*-(4-Bromo-phenyl)-6-(5-chloro-2-ethyl-phenyl)-pyrimidine-2,4-diamine]
0.11	CCOc1ccc(Cl)cc1-c1cc(Nc2ccc(S(C)(=O)=O)cc2)nc(N)n1 [Example 124, 6-(5-chloro-2-ethoxyphenyl)-N*4*-(4-methanesulfonylphenyl)pyrimidine-2,4-diamine]
0.1	CCOc1ccc(I)cc1-c1cc(Nc2ccc(N=[N+]=[N-])cc2)nc(N)n1 [Example 140, N*4*-{4-Azido-phenyl)-6-(2-ethoxy-5-iodo-phenyl)-pyrimidine-2,4-diamine]
0.095	Cc1ccc(Cl)cc1-c1cc(Nc2ccc(CO)cc2)nc(N)n1 [Example 33, {4-[2-Amino-6-(5-chloro-2-methyl-phenyl)-pyrimidin4-ylamino]-phenyl}-methanol]
0.08	COc1ccc(Cl)cc1-c1cc(Nc2ccc3cn[nH]c3c2)nc(N)n1 [Example 3, 6-(5-Chloro-2-methoxy-phenyl)-N*4*-(1H-indazol-6-yl)-pyrimidine-2,4-diamine]
0.029	COc1ccc(Cl)cc1-c1cc(Nc2ccc(Br)cc2)nc(N)n1 [Example 5, N*4*-(4-Bromo-phenyl)-6-(5-chloro-2-methoxy-phenyl)-pyrimidine-2,4-diamine]
0.028	Nc1nc(Nc2ccc(CCO)cc2)cc(-c2cc(Cl)ccc2Cl)n1 [Example 48, 2-{4-[2-Amino-6-(2,5-dichloro-phenyl)-pyrimidin4-ylamino]-phenyl}-ethanol]
0.021	Cc1ccc(Br)cc1-c1cc(Nc2ccc([N+](=O)[O-])cc2)nc(N)n1 [Example 88, 6-(5-Bromo-2-methyl-phenyl)-N*4*-(4-nitro-phenyl)-pyrimidine-2,4-diamine]
0.021	Cc1nc(Nc2ccc(Br)cc2)cc(-c2cc(Cl)ccc2C)n1 [Example 41, [6-(5-Chloro-2-methyl-phenyl)-2-methyl-pyrimidin-4-yl]-(4-bromo-phenyl)-amine]
0.015	CCOc1ccc(Br)cc1-c1cc(Nc2ccc([N+](=O)[O-])cc2)nc(N)n1 [Example 133, 6-(5-Bromo-2-ethoxy-phenyl)-N*4*-(4-nitro-phenyl)-pyrimidine-2,4-diamine]
0.014	COc1ccc(Cl)cc1-c1cc(Nc2ccc3cn[nH]c3c2)nc(C)n1 [Example 40, [6-(5-Chloro-2-methoxy-phenyl)-2-methyl-pyrimidin4-yl]-(1H-indazol-6-yl)-amine]
